The text below walks through data of article PMC11207571, “Applicability of MDR1 Overexpressing Abcb1KO-MDCKII Cell Lines for Investigating In Vitro Species Differences and Brain Penetration Prediction” (Pharmaceutics, 2024).

Each structure is given as a SMILES string.

Sequence of human MDR1 (P08183 whole entry): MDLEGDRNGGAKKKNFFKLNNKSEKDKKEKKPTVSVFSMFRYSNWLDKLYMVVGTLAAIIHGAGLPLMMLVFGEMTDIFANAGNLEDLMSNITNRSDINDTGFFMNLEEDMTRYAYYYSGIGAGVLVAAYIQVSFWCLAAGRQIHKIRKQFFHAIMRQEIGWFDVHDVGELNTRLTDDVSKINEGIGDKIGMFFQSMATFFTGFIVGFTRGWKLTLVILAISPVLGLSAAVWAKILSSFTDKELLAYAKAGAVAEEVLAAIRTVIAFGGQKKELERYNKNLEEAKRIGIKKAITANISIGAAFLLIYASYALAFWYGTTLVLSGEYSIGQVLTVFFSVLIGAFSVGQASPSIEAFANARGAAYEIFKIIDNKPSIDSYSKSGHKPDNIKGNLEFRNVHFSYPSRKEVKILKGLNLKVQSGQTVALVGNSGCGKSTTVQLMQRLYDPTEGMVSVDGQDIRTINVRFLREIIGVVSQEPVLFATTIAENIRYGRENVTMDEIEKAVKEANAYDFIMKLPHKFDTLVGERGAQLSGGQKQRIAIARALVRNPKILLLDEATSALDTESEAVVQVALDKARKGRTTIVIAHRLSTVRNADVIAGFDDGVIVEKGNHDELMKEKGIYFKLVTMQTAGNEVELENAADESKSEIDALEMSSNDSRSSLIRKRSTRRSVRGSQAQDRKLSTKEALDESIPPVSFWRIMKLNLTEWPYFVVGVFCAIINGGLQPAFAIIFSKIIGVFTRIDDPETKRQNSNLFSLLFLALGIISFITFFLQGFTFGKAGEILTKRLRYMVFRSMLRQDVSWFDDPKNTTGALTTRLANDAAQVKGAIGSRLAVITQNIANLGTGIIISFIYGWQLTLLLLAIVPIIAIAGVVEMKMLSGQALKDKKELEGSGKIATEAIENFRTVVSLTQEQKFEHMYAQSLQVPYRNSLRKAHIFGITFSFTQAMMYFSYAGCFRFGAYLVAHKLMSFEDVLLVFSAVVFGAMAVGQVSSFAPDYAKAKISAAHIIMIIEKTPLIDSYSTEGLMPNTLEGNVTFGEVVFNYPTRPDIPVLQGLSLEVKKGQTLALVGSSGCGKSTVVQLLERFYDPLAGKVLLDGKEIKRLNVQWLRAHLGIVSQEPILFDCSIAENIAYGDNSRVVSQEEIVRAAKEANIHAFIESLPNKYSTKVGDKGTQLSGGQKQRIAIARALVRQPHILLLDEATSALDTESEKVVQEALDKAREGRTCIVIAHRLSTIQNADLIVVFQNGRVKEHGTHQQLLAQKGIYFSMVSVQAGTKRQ

For one series, the target named is mouse Mdr1a (Mus musculus, UniProt P21447). Kind of series: Bidirectional transport assay, efflux ratio in Abcb1KO-MDCKII mMDR1 cells. Particulars: mouse, pH 7.4. In outline: (§1)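 Samples, combined into pools of three to four analytes, are injected onto HPLC with formic acid (0.1%)-modified aqueous and acetonitrile eluents. They are then quantified by tandem MS in SRM mode.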
Sequence of mouse Mdr1a (P21447 whole entry): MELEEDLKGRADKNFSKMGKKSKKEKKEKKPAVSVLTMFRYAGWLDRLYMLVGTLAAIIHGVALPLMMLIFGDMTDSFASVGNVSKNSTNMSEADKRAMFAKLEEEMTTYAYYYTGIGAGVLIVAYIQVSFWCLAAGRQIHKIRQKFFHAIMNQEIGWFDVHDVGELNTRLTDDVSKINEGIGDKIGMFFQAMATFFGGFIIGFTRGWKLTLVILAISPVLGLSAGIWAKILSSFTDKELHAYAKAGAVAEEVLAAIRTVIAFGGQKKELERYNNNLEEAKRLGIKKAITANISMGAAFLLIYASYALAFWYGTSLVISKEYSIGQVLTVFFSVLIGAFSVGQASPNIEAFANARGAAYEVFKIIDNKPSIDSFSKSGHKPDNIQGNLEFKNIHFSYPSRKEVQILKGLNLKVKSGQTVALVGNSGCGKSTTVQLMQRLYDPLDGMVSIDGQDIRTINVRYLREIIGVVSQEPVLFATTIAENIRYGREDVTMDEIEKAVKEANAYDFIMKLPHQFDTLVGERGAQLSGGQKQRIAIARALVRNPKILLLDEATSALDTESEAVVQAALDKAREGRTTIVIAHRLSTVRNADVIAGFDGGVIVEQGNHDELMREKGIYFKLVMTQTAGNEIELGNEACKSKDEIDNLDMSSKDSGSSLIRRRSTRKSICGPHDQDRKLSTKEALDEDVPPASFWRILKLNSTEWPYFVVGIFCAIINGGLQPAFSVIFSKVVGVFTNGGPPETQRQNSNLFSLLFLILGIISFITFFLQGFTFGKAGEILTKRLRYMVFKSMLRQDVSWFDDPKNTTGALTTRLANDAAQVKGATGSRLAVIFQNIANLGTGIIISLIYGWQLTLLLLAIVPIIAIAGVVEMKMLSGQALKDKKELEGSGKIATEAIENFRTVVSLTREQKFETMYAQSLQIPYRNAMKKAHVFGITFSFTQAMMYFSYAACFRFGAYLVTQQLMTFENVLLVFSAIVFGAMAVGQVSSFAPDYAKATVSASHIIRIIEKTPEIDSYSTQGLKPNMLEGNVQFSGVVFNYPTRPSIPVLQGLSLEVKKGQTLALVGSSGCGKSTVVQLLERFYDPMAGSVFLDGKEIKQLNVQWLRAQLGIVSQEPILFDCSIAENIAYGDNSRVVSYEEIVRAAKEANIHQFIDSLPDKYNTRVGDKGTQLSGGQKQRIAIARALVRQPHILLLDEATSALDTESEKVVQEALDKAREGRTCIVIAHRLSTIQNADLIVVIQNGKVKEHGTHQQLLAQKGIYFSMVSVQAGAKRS
As a reminder, the efflux ratio is a quotient of directional permeabilities that is used to spot active efflux. `OC[C@@H](O)[C@@H](O)[C@H](O)[C@H](O)CO` [Mannitol]: the efflux ratio at 120 min, 1 µM worked out at 1.04 ± 0.16.
Same read-out and setting: the same measure for `Cc1nccn1CC1CCc2c(c3ccccc3n2C)C1=O` (centres unmarked) [Ondansetron]: 5.33 ± 0.54.
Same read-out and setting: the same measure for `CNS(=O)(=O)Cc1ccc2[nH]cc(CCN(C)C)c2c1` [Sumatriptan]: 1.76 ± 0.08; for `COc1cc(Cc2cnc(N)nc2N)cc(OC)c1OC` [Trimethoprim]: 9.04 ± 0.49.
The same measure, in the same setting: as for `CC(=O)CC(c1ccccc1)c1c(O)c2ccccc2oc1=O` (centres unmarked) [Warfarin], the figure is 0.58 ± 0.02.

For the next series, the system named is hMDR1 and hBCRP. Kind of series: Brain permeability classification from total ER of hMDR1 and hBCRP against in vivo rodent Kp,uu,brain. Particulars: not told. How it is done:
MDR1 and/or BCRP substrate properties were investigated by binary classification analysis on CNS+ and CNS− compounds. […] True negative (TN), where there was no efflux and the CNS+ compound crossed the BBB. […] The sensitivity and specificity of the estimation of brain penetration along with MDR1 and BCRP activity were calculated from predictive performance metrics.
First, NET ER was calculated and used for human predictions, (2) NET ER=ER(−inh)[…]ER(+inh) where ER(−inh) is ER in the absence of inhibitor, and ER(+inh) is ER in the presence of inhibitor, for hMDR1 (ERMDR1) or hBCRP (ERBCRP).
To identify the correlation between the in vivo rodent Kp,uu,brain and ERs, 58 compounds with known Kp,uu,brain were selected. An ER of 2 was used as a cut-off to classify MDR1 substrates and a Kp,uu,brain of 0.3 was used as a threshold for CNS penetrant compounds. The resulting graphs are thus divided into four quadrants. Brain penetration (Kp,uu,brain) was used as the logical value true condition, with compounds having Kp,uu,brain ≤ 0.3 considered positive. Q2 and Q3 comprise molecules with impaired brain penetration. […] Molecules in Q4 (true negatives, TN) can freely access the brain (Figure 2). Predictive performance metrics were calculated to show the efficacy of the established cell lines in BBB permeability classification (Table 1). Sensitivity refers to the ability of the model to correctly classify CNS-restricted molecules based on MDR1 substrate nature.
Subsequently, for a more reliable prediction of brain penetration, data generated in the hBCRP cell line were included in the analysis. hBCRP assay conditions and evaluations were identical to that of MDR1 cell lines, which allowed proper comparisons (Figure 2E,F). Total ER was calculated by combining ERs determined in BCRP and hMDR1 cell lines based on Equation (3), with an ER cut-off of 3. […] Eventually, total ERs were also assessed with the Relative Expression Factor (REF) (Equation (4); Figure 2E,F). REF is an in vitro and in vivo correlation scaler, calculated from transporter protein abundances in brain microvessels versus overexpressing cell lines.
Regarding `CC(=O)CC(c1ccccc1)c1c(O)c2ccccc2oc1=O` (centres unmarked) [Warfarin], the “CNS penetration classification based on total ER (hMDR1 + hBCRP)” value is “false positives”.

Staying with this series, now noted: total ER cut-off 3; in vivo rodent Kp,uu,brain cut-off 0.3.
As to `OC[C@@H](O)[C@@H](O)[C@H](O)[C@H](O)CO` [Mannitol], the “CNS penetration classification based on total ER (hMDR1 + hBCRP)” value is recorded as “false negatives”.
The same measure, in the same setting: the same measure for `Cc1nccn1CC1CCc2c(c3ccccc3n2C)C1=O` (centres unmarked) [Ondansetron]: “false positives”; for `CNS(=O)(=O)Cc1ccc2[nH]cc(CCN(C)C)c2c1` [Sumatriptan]: “false negatives”; for `COc1cc(Cc2cnc(N)nc2N)cc(OC)c1OC` [Trimethoprim]: “false positives”.

For a further series, the target named is human MDR1 (Homo sapiens, UniProt P08183). Kind of series: Bidirectional transport assay, efflux ratio in Abcb1KO-MDCKII hMDR1 cells. Particulars: human, MDCK-MDR1, pH 7.4. The essentials:
as §1
Consider `OC[C@@H](O)[C@@H](O)[C@H](O)[C@H](O)CO` [Mannitol], for which the efflux ratio at 120 min, 1 µM came to 0.87 ± 0.14.
Still for that read-out and setting: as for `Cc1nccn1CC1CCc2c(c3ccccc3n2C)C1=O` (centres unmarked) [Ondansetron], the figure is 5.24 ± 0.68; as for `CNS(=O)(=O)Cc1ccc2[nH]cc(CCN(C)C)c2c1` [Sumatriptan], 1.88 ± 0.12.
The same measure, in the same setting: as for `COc1cc(Cc2cnc(N)nc2N)cc(OC)c1OC` [Trimethoprim], the figure is 7.29 ± 0.69; as for `CC(=O)CC(c1ccccc1)c1c(O)c2ccccc2oc1=O` (centres unmarked) [Warfarin], 0.56 ± 0.02.

For the next series, the target named is cynomolgus monkey Mdr1 (Macaca fascicularis, UniProt Q8HZQ6). Kind of series: Bidirectional transport assay, efflux ratio in Abcb1KO-MDCKII cyMDR1 cells. Particulars: cynomolgus monkey, pH 7.4. The essentials: as §1
Sequence of cynomolgus monkey Mdr1 (Q8HZQ6 1-1283): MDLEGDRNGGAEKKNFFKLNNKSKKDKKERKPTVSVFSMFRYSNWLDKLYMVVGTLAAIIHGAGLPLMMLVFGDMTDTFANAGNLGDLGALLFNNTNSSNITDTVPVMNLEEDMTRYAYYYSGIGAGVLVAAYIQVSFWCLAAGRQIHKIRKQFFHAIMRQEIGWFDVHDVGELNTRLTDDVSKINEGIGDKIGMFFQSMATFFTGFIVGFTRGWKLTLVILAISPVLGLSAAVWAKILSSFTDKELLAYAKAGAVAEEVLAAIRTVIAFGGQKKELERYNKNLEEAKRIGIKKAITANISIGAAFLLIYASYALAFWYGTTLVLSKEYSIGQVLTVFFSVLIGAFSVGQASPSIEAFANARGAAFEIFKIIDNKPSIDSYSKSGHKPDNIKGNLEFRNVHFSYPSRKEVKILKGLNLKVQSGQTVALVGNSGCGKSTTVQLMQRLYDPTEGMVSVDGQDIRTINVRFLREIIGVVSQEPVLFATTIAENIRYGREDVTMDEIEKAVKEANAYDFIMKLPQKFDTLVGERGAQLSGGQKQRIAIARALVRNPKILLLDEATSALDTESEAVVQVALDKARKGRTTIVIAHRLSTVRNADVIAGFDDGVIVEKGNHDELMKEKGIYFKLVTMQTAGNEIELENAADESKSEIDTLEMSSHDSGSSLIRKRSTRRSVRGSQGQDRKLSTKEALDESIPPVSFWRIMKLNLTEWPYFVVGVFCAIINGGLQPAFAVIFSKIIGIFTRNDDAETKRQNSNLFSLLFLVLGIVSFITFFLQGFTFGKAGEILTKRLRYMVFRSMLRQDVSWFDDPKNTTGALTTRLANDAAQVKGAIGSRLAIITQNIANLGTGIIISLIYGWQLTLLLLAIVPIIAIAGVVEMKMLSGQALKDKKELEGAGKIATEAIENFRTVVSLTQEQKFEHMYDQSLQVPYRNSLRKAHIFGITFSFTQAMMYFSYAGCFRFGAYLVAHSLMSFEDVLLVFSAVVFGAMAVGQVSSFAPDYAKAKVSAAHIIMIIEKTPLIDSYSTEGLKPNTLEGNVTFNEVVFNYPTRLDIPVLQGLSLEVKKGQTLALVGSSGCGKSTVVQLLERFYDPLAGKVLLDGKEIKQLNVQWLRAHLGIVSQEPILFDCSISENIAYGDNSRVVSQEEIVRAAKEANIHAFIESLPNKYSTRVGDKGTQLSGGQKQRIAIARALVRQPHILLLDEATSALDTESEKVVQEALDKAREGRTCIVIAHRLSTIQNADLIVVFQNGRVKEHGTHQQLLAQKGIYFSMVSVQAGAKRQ
With `OC[C@@H](O)[C@@H](O)[C@H](O)[C@H](O)CO` [Mannitol], the efflux ratio at 120 min, 1 µM was 0.76 ± 0.1.
Same read-out and setting: as for `Cc1nccn1CC1CCc2c(c3ccccc3n2C)C1=O` (centres unmarked) [Ondansetron], the figure is 3.77 ± 0.64.
Same read-out and setting: the same measure for `CNS(=O)(=O)Cc1ccc2[nH]cc(CCN(C)C)c2c1` [Sumatriptan]: 1.53 ± 0.1; for `COc1cc(Cc2cnc(N)nc2N)cc(OC)c1OC` [Trimethoprim]: 1.65 ± 0.1.
For the compound `CC(=O)CC(c1ccccc1)c1c(O)c2ccccc2oc1=O` (centres unmarked) [Warfarin], the efflux ratio at 120 min, 1 µM stood at 0.58 ± 0.05.

System in the next series: not listed separately
Kind of series: Bidirectional transport assay, efflux ratio in Abcb1KO-MDCKII-Mock control cells. Particulars: dog, MDCK, pH 7.4. How it is done: Eluent A consisted of 0.1% formic acid in water, eluent B consisted of 0.1% formic acid in acetonitrile. Then, 10 µL samples were injected into the HPLC-MS/MS system. Mass spectrometric detection was performed in SRM mode, and ion transitions for each analyte were optimized during method development. Samples were analyzed in pools, with each pool containing three to four analytes.
Take `OC[C@@H](O)[C@@H](O)[C@H](O)[C@H](O)CO` [Mannitol]: the efflux ratio at 120 min, 1 µM was determined as 0.96 ± 0.12.
With `Cc1nccn1CC1CCc2c(c3ccccc3n2C)C1=O` (centres unmarked) [Ondansetron], the efflux ratio at 120 min, 1 µM came to 0.7 ± 0.02.
Same read-out and setting: the same measure for `CNS(=O)(=O)Cc1ccc2[nH]cc(CCN(C)C)c2c1` [Sumatriptan]: 0.93 ± 0.04; for `COc1cc(Cc2cnc(N)nc2N)cc(OC)c1OC` [Trimethoprim]: 0.84 ± 0.06.
The same measure, in the same setting: the same measure for `CC(=O)CC(c1ccccc1)c1c(O)c2ccccc2oc1=O` (centres unmarked) [Warfarin]: 0.54 ± 0.02.

The target of a further series is rat Mdr1a (Rattus norvegicus, UniProt Q6PSM0). Description: Bidirectional transport assay, efflux ratio in Abcb1KO-MDCKII rMDR1 cells. Particulars: rat, pH 7.4. The essentials: as §1
Sequence of rat Mdr1a (Q6PSM0 1-1272): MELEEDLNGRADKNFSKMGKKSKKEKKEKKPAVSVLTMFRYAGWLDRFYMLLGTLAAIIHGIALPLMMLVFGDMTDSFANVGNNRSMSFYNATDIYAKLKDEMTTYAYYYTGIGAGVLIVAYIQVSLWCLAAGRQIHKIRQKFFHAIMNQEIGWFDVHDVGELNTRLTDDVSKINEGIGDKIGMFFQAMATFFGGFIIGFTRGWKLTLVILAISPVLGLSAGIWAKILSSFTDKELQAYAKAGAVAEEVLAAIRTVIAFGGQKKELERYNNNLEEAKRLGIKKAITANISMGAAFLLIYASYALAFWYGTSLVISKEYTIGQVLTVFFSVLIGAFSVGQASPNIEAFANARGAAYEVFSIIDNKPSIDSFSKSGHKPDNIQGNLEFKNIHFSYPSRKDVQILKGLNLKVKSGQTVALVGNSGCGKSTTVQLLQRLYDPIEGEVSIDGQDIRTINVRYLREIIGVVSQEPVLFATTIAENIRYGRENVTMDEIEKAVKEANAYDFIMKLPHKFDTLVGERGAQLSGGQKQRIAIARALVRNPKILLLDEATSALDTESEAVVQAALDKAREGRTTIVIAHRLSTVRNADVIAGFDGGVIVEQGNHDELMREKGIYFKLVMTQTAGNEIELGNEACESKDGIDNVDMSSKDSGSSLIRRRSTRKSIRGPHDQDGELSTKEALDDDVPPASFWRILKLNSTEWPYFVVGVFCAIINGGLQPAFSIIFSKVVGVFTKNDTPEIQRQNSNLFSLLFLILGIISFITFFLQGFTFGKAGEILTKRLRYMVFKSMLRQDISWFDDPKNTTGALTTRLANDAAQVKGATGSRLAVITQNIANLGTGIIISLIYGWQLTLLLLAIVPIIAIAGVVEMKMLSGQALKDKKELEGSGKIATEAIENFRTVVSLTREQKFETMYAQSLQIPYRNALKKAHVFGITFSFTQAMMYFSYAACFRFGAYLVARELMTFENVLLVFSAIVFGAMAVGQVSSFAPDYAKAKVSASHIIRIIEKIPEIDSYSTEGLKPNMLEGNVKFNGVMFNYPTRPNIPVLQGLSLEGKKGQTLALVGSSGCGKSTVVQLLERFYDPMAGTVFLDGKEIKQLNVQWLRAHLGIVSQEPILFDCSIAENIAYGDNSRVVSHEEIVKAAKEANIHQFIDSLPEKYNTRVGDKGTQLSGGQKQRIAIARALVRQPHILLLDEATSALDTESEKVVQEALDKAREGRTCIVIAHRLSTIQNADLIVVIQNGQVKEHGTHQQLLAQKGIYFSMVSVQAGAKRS
Regarding `OC[C@@H](O)[C@@H](O)[C@H](O)[C@H](O)CO` [Mannitol], the efflux ratio at 120 min, 1 µM was 0.89 ± 0.12.
Turning to `Cc1nccn1CC1CCc2c(c3ccccc3n2C)C1=O` (centres unmarked) [Ondansetron], the efflux ratio at 120 min, 1 µM was 7.62 ± 0.39.
Same read-out and setting: as for `CNS(=O)(=O)Cc1ccc2[nH]cc(CCN(C)C)c2c1` [Sumatriptan], the figure is 2.02 ± 0.12; as for `COc1cc(Cc2cnc(N)nc2N)cc(OC)c1OC` [Trimethoprim], 13.2 ± 0.68; as for `CC(=O)CC(c1ccccc1)c1c(O)c2ccccc2oc1=O` (centres unmarked) [Warfarin], 0.6 ± 0.01.

For a further series, the target named is T1, human BCRP (Homo sapiens, UniProt Q9UNQ0).
T1 sequence (Q9UNQ0 1-655): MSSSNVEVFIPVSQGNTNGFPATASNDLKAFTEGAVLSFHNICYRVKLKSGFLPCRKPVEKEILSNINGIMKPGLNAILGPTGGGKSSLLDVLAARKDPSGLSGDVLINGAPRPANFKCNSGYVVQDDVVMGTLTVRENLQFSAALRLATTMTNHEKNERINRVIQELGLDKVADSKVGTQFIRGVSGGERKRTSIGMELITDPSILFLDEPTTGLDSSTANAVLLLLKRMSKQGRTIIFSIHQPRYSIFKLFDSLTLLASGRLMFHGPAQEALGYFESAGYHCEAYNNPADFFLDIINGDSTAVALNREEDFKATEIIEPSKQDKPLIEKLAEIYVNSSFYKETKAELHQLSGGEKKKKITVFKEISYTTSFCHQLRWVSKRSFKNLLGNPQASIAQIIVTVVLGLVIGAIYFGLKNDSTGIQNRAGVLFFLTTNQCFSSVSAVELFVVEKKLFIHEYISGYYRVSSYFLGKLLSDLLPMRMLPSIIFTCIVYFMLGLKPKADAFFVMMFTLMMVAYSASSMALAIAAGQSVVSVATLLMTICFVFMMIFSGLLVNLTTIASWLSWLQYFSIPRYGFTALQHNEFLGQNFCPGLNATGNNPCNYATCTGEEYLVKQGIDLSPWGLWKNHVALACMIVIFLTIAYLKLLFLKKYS
Description: Bidirectional transport assay, efflux ratio in MDCKII-BCRP cells. Particulars: human, pH 7.4. In outline: as §1
For the compound `OC[C@@H](O)[C@@H](O)[C@H](O)[C@H](O)CO` [Mannitol], the efflux ratio at 120 min, 1 µM worked out at 0.73 ± 0.2.
The same measure, in the same setting: the same measure for `Cc1nccn1CC1CCc2c(c3ccccc3n2C)C1=O` (centres unmarked) [Ondansetron]: 4.28 ± 0.71; for `CNS(=O)(=O)Cc1ccc2[nH]cc(CCN(C)C)c2c1` [Sumatriptan]: 1.74 ± 0.24; for `COc1cc(Cc2cnc(N)nc2N)cc(OC)c1OC` [Trimethoprim]: 3.08 ± 0.17.
Still for that read-out and setting: the same measure for `CC(=O)CC(c1ccccc1)c1c(O)c2ccccc2oc1=O` (centres unmarked) [Warfarin]: 4.03 ± 0.29.
